Laboratory results published in ChEMBL document CHEMBL3132801, “Meridianin G and its analogs as antimalarial agents” (Medchemcomm, 2013).
≈ marks a conversion by molar mass, not a printed value. Calls of active or inactive are those of the source. The rule behind the calls is not given here.

Experiments:
[1] = test system: HepG2; experiment: Cytotoxicity against human HepG2 cells after 48 hrs by Neutral Red assay; type: cell-based; settings: HepG2, 48 h
[2] = test system: Vero; experiment: Cytotoxicity against african green monkey Vero cells after 48 hrs by Neutral Red assay; type: cell-based; settings: Chlorocebus sabaeus
[3] = test system: Plasmodium falciparum; experiment: Antimicrobial activity against Plasmodium falciparum W2 after 72 hrs by LDH activity assay; type: functional, organism-based
[4] = test system: Leishmania donovani; experiment: Antileishmanial activity against Leishmania donovani promastigotes after 48 hrs by Alamar Blue assay; type: functional, organism-based
[5] = test system: Plasmodium falciparum; experiment: Antimicrobial activity against Plasmodium falciparum D6 after 72 hrs by LDH activity assay; type: functional, organism-based
[6] = test system: LLC-PK1; experiment: Cytotoxicity against a pig LLC-PK1 cells after 48 hrs by Neutral Red assay; type: cell-based; settings: Sus scrofa, LLC-PK1, 48 h
[7] = Selectivity index, ratio of IC50 for african green monkey Vero cells to IC50 for Plasmodium falciparum W2; type: toxicity, cell-based; settings: read-out: Ratio IC50
[8] = Selectivity index, ratio of IC50 for african green monkey Vero cells to IC50 for Plasmodium falciparum D6; type: toxicity, cell-based; settings: read-out: Ratio IC50
[9] = Selectivity index, ratio of IC50 for pig LLC-PK1 cells to IC50 for Plasmodium falciparum W2; type: toxicity, cell-based; settings: read-out: Ratio IC50
[10] = Selectivity index, ratio of IC50 for human HepG2 cells to IC50 for Plasmodium falciparum D6; type: toxicity, cell-based; settings: read-out: Ratio IC50
[11] = Selectivity index, ratio of IC50 for human HepG2 cells to IC50 for Plasmodium falciparum W2; type: toxicity, cell-based; settings: read-out: Ratio IC50
[12] = Selectivity index, ratio of IC50 for pig LLC-PK1 cells to IC50 for Plasmodium falciparum D6; type: toxicity, cell-based; settings: read-out: Ratio IC50
[13] = test system: Aspergillus fumigatus; experiment: Antimicrobial activity against Aspergillus fumigatus by NCCLS method; type: functional, organism-based
[14] = test system: Cryptococcus neoformans; experiment: Antimicrobial activity against Cryptococcus neoformans by NCCLS method; type: functional, organism-based
[15] = test system: Staphylococcus aureus; experiment: Antimicrobial activity against methicillin-resistant Staphylococcus aureus by NCCLS method; type: functional, organism-based
[16] = test system: Candida albicans; experiment: Antimicrobial activity against Candida albicans by NCCLS method; type: functional, organism-based
[17] = test system: Staphylococcus aureus; experiment: Antimicrobial activity against Staphylococcus aureus by NCCLS method; type: functional, organism-based
[18] = Leishmania donovani, 48 h, read-out: IC50
[19] = Plasmodium falciparum, W2, 72 h, read-out: IC50
[20] = Plasmodium falciparum, D6, 72 h, read-out: IC50
[21] = Staphylococcus aureus, read-out: IC50

SMILES	IC50 [1] [µM]	IC50 [2] [µM]	IC50 [6] [µM]	IC50 [3, 19] [µM]	IC50 [5, 20] [µM]	selectivity ratio [7]	selectivity ratio [8]	selectivity ratio [9]	selectivity ratio [10]	selectivity ratio [11]	selectivity ratio [12]	IC50 [4]	IC90 [4]	further results
O=c1[nH]c(-c2c[nH]c3ccc(I)cc23)nc2ccccc12	> 65	> 65	> 65	–	–	–	–	–	–	–	–	–	–	IC50 [3]: Not Active; IC90 ([4]; Leishmania donovani, 48 h): 14.2 µM; IC50 [4, 18]: 9.17 µM; IC50 [5]: Not Active
C[C@@H]1CC[C@H]2[C@@H](C)C(=O)O[C@@H]3O[C@@]4(C)CC[C@@H]1[C@]32OO4 [ARTEMISININ]	–	–	–	< 0.09	< 0.09	–	–	–	–	–	–	–	–	–
Nc1nccc(-c2cn(Cc3c4ccccc4cc4ccccc34)c3ccccc23)n1	> 63	> 63	> 63	11	7.06	> 5.7	> 8.9	> 5.7	> 8.9	> 5.7	> 8.9	–	–	IC50 [4, 18]: 80 µM
Nc1nccc(-c2cn(C(=O)c3ccccc3)c3ccccc23)n1	> 80	> 80	> 80	4.58	11.4	> 17.4	> 7	> 17.4	> 7	> 17.4	> 7	Not Active	inactive	–
CN1CCN(C(=O)n2cc(-c3ccnc(N)n3)c3ccccc32)CC1	> 74	> 74	> 74	14.5	9.63	> 5.1	> 7.7	> 5.1	> 7.7	> 5.1	> 7.7	Not Active	inactive	–
Nc1nccc(-c2cn(Cc3c4ccccc4cc4ccccc34)c3ccc(Br)cc23)n1	> 52	> 52	> 52	11.6	11.1	> 4.5	> 4.7	> 4.5	> 4.7	> 4.5	> 4.7	Not Active	inactive	–
O=C1NC(c2c[nH]c3ccc(Br)cc23)Nc2ccccc21 (stereo not drawn)	73	> 73	53	–	–	–	–	–	–	–	–	–	–	Activity [13]: inactive; IC50 [14]: 14.8 µM; MBC [14]: inactive; MIC [14]: inactive; MBC [15]: inactive; MIC [15]: inactive; IC50 [15, 21]: 20.9 µM; IC50 [3]: Not Active; Activity [16]: inactive; IC50 [4, 18]: 79.9 µM; IC50 [5]: Not Active; MBC [17]: inactive; MIC [17]: inactive; IC50 [17, 21]: 25.2 µM
Cc1noc(C)c1Cn1cc(-c2ccnc(N)n2)c2cc(Br)ccc21	> 63	> 63	> 63	14.6	9.62	> 4.3	> 6.5	> 4.3	> 6.5	> 4.3	> 6.5	–	inactive	IC50 [4, 18]: 107 µM
Nc1nccc(-c2cn(CN3C(=O)c4ccccc4C3=O)c3ccc(Br)cc23)n1	–	–	–	–	–	–	–	–	–	–	–	–	–	Activity [13]: inactive; IC50 [14]: 26.9 µM; MBC [14]: inactive; MIC [14]: inactive; IC50 [15]: Not Active; MBC [15]: inactive; MIC [15]: inactive; Activity [3]: inactive; Activity [16]: inactive; Activity [4]: inactive; Activity [5]: inactive; IC50 [17]: Not Active; MBC [17]: inactive; MIC [17]: inactive
CN1CCN(C(=O)n2cc(-c3ccnc(N)n3)c3cc(Br)ccc32)CC1	> 60	> 60	> 60	–	–	–	–	–	–	–	–	–	–	IC50 [3]: Not Active; IC90 ([4]; Leishmania donovani, 48 h): 108 µM; IC50 [4, 18]: 40.5 µM; IC50 [5]: Not Active
Nc1nccc(-c2c[nH]c3ccccc23)n1	> 119	119	107	4.44	9.69	> 26.8	> 12.3	> 24.1	> 12.3	> 26.8	> 11.1	Not Active	inactive	–
Nc1nccc(-c2cn(C(=O)N3CCOCC3)c3ccccc23)n1	> 77	> 77	> 77	3.08	4.01	> 25.1	> 19.3	> 25.1	> 19.3	> 25.1	> 19.3	Not Active	inactive	–
COc1cccc(C(=O)n2cc(-c3ccnc(N)n3)c3ccccc32)c1	–	–	–	–	–	–	–	–	–	–	–	–	–	Activity [3]: inactive; Activity [4]: inactive; Activity [5]: inactive
COc1cccc2c1C(=O)c1c(O)c3c(c(O)c1C2=O)C[C@@](O)(C(=O)CO)C[C@@H]3O[C@H]1C[C@H](N)[C@H](O)[C@H](C)O1 [DOXORUBICIN]	2	7	< 1	–	–	–	–	–	–	–	–	–	–	–
Cc1noc(C)c1Cn1cc(-c2ccnc(N)n2)c2ccccc21	> 78	> 78	> 78	–	12.4	–	> 6.3	–	> 6.3	–	> 6.3	Not Active	inactive	IC50 [3]: Not Active
O=C1NC(c2c[nH]c3ccccc23)Nc2ccccc21 (stereo not drawn)	–	–	–	–	–	–	–	–	–	–	–	–	–	Activity [3]: inactive; Activity [4]: inactive; Activity [5]: inactive
N=C(N)c1ccc(OCCCCCOc2ccc(C(=N)N)cc2)cc1 [PENTAMIDINE]	–	–	–	–	–	–	–	–	–	–	–	–	–	IC90 ([4]; Leishmania donovani, 48 h): 6.21 µM
Nc1nccc(-c2cn(C(=O)N3CCOCC3)c3ccc(Br)cc23)n1	–	–	–	–	–	–	–	–	–	–	–	–	–	Activity [3]: inactive; Activity [4]: inactive; Activity [5]: inactive
C[C@@H]1[C@H](O)[C@@H](C)/C=C/C=C/C=C/C=C/C=C/C=C/C=C/[C@H](O[C@@H]2O[C@H](C)[C@@H](O)[C@H](N)[C@@H]2O)C[C@@H]2O[C@](O)(C[C@@H](O)C[C@@H](O)[C@H](O)CC[C@@H](O)C[C@@H](O)CC(=O)O[C@H]1C)C[C@H](O)[C@H]2C(=O)O [AMPHOTERICIN B]	–	–	–	–	–	–	–	–	–	–	–	–	–	MBC [14]: 1.35 µM (≈ 1.25 µg/mL); MIC [14]: 1.35 µM (≈ 1.25 µg/mL); IC90 ([4]; Leishmania donovani, 48 h): 0.35 µM
